ChEMBL document CHEMBL1153318, “Design of potent thiophene inhibitors of polo-like kinase 1 with improved solubility and reduced protein binding” (Bioorg Med Chem Lett, 2009)
≈ marks a conversion by molar mass, not a printed value.

Columns and labels:
[1] = system: MX1; assay: Antiproliferative activity against human MX1 cells after 72 hrs by luminescence-based cell viability assay; assay type: functional; conditions: MX1, 72 h
[2] = system: SK-OV-3; assay: Antiproliferative activity against human SKOV3 cells after 72 hrs by luminescence-based cell viability assay; assay type: functional; conditions: SK-OV-3, 72 h
[3] = target: Platelet-derived growth factor receptor beta (Homo sapiens, UniProt P09619); assay: Inhibition of human PDGFR1beta
Platelet-derived growth factor receptor beta, sequence (P09619 whole entry): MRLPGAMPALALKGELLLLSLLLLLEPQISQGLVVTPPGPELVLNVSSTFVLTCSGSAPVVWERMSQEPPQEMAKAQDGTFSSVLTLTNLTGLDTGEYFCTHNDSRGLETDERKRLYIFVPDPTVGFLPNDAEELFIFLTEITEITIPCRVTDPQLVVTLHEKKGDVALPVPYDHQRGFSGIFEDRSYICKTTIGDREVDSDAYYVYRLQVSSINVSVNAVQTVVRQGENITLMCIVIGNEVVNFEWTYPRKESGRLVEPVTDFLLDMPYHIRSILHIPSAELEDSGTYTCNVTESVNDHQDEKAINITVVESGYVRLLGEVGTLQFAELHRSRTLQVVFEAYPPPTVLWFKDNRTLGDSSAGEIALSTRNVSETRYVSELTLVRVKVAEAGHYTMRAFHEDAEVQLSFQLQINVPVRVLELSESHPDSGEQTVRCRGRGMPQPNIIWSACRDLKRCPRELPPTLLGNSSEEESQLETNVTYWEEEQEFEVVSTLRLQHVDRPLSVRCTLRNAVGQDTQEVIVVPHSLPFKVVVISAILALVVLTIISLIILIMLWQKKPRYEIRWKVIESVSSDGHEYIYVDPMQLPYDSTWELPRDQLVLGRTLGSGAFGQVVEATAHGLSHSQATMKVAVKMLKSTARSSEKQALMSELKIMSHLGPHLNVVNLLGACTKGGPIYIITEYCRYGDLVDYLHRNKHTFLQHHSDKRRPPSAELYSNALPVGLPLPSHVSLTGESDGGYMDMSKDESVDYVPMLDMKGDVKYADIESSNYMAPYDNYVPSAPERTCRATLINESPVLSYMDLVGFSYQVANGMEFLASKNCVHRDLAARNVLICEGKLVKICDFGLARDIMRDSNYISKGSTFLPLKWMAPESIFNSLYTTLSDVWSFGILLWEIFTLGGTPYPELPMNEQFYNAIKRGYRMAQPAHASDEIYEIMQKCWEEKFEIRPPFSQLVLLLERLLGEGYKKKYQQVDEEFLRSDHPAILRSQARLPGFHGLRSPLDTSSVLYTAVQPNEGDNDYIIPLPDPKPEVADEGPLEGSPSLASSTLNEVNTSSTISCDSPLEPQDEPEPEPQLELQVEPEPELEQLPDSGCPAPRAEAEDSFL

[4] = target: Serine/threonine-protein kinase pim-1 (Homo sapiens, UniProt P11309); assay: Inhibition of human PIM1
Serine/threonine-protein kinase pim-1, sequence (P11309 whole entry, canonical isoform): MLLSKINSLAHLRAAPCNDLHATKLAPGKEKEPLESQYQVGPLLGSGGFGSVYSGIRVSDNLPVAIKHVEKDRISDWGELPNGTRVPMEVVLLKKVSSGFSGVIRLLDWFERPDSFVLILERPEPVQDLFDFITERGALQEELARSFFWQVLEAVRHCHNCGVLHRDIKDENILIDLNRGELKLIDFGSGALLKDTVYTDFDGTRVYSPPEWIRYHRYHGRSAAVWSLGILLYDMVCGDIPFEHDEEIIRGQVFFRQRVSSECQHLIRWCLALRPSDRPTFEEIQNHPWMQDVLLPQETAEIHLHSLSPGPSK

[5] = target: Phosphatidylinositol 4,5-bisphosphate 3-kinase catalytic subunit gamma isoform (Homo sapiens, UniProt P48736); assay: Inhibition of human PI3Kgamma
[6] = target: T1, Phosphatidylinositol 4,5-bisphosphate 3-kinase catalytic subunit delta isoform (Homo sapiens, UniProt O00329); assay: Inhibition of human PI3Kdelta
T1 sequence (O00329 whole entry): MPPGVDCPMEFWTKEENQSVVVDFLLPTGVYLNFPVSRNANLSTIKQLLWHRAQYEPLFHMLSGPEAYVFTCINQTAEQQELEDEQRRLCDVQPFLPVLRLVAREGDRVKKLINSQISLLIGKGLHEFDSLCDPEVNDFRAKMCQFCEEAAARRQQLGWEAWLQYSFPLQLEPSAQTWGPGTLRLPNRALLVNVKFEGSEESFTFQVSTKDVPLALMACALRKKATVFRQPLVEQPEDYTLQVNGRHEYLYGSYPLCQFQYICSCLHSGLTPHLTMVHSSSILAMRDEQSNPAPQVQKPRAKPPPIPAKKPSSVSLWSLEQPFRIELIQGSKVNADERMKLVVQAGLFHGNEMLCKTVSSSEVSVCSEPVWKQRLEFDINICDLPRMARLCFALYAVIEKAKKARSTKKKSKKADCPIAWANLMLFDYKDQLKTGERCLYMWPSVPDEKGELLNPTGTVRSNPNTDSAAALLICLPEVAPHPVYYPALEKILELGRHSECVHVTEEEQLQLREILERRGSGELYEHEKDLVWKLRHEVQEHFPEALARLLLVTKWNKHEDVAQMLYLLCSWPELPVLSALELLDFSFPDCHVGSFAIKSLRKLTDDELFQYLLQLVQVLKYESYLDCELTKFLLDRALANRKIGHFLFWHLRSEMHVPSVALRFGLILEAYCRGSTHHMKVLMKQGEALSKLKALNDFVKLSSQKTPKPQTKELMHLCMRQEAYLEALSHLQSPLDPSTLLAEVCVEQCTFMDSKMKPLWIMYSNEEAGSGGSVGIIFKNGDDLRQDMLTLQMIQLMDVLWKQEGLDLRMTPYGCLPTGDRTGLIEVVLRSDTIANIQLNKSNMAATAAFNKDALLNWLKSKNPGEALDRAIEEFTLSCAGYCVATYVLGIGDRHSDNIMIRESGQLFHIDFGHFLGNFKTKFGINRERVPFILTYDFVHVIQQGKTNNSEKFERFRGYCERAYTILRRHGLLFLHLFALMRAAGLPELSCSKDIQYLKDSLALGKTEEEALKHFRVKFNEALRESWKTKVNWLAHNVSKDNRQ

[7] = target: Vascular endothelial growth factor receptor 2 (Homo sapiens, UniProt P35968); assay: Inhibition of human VEGFR2
Vascular endothelial growth factor receptor 2, sequence (P35968 whole entry): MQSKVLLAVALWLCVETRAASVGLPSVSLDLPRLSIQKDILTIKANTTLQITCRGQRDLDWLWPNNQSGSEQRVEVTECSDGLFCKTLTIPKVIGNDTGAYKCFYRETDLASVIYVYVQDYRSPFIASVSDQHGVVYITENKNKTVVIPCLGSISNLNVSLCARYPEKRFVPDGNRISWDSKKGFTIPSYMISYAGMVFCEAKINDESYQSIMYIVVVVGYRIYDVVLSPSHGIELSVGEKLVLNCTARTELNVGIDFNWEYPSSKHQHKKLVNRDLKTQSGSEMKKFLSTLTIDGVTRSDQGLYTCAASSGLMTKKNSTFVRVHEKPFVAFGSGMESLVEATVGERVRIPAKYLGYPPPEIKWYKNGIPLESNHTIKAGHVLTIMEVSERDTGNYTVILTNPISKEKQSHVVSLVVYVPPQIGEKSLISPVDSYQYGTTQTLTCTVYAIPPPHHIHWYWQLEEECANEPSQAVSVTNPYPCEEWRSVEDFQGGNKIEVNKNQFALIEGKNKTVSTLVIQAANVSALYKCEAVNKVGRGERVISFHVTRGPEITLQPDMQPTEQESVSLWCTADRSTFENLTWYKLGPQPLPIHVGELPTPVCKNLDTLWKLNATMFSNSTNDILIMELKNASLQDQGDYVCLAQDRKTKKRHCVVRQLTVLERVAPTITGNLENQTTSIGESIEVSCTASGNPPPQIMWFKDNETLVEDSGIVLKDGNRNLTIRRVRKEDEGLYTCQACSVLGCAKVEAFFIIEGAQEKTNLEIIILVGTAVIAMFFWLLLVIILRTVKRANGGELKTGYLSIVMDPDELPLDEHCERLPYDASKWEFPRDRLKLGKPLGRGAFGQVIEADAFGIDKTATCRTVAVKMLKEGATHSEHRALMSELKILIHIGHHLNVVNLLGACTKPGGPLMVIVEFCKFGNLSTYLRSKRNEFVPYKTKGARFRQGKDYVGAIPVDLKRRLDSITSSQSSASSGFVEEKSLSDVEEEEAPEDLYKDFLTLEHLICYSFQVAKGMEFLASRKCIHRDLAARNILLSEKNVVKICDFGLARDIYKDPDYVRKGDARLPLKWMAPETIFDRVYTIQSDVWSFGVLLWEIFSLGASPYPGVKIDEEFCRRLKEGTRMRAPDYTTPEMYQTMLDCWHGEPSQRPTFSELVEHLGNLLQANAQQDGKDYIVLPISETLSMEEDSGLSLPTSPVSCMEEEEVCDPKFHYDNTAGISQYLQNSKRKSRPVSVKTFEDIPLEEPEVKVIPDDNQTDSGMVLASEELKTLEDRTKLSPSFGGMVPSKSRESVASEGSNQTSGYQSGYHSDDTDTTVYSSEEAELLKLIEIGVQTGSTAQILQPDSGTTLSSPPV

[8] = target: T2, NUAK family SNF1-like kinase 1 (Homo sapiens, UniProt O60285); assay: Inhibition of human Nuak1
T2 sequence (O60285 whole entry): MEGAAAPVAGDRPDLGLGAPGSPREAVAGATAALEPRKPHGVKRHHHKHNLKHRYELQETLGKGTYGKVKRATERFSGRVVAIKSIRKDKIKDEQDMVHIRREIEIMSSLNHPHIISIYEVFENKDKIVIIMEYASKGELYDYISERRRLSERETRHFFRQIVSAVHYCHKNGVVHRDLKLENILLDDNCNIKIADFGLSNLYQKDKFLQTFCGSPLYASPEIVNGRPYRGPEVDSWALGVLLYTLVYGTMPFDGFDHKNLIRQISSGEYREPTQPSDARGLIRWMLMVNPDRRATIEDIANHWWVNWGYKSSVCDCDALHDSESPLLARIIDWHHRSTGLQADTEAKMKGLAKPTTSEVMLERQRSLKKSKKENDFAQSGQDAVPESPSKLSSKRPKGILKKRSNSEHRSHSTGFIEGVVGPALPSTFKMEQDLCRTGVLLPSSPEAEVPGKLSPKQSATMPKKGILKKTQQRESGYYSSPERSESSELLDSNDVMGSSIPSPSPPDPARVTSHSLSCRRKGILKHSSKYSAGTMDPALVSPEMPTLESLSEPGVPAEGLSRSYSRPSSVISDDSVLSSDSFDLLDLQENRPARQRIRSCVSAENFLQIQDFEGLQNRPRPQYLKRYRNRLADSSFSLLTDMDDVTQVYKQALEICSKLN

[9] = Solubility in 0.05 M phosphate buffer at 200 uM at pH 7.4 after 15 mins by HPLC; assay type: physicochemical
[10] = Protein binding in human plasma at 2000 ng/mL after 6 hrs by equilibrium dialysis method; assay type: ADME, cell-free; conditions: read-out: PPB (converted)
[11] = system: COLO 205; assay: Antiproliferative activity against human COLO205 cells after 72 hrs by luminescence-based cell viability assay; assay type: functional; conditions: COLO 205, 72 h
[12] = system: HT-29; assay: Antiproliferative activity against human HT-29 cells after 72 hrs by luminescence-based cell viability assay; assay type: functional; conditions: HT-29, 72 h
[13] = system: A549; assay: Antiproliferative activity against human A549 cells after 72 hrs by luminescence-based cell viability assay; assay type: functional; conditions: A549, 72 h
[14] = target: T3, Serine/threonine-protein kinase Nek2 (Homo sapiens, UniProt P51955)
T3 sequence (P51955 whole entry): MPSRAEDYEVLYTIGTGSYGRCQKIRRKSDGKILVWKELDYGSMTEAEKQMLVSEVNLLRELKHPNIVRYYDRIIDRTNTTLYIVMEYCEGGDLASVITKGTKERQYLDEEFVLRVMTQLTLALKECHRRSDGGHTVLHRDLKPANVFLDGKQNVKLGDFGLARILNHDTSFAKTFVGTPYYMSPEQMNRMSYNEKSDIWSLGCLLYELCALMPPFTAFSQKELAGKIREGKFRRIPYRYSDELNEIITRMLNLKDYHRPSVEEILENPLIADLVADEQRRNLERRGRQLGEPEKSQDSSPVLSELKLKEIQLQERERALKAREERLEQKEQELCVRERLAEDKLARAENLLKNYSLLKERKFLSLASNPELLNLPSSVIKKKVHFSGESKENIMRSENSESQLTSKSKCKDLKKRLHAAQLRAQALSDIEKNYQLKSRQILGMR

[15] = system: HCT-116; assay: cells; conditions: Homo sapiens, HCT-116, 72 h
Description: Antiproliferative activity against human HCT116 cells after 72 hrs by luminescence-based cell viability assay

[16] = target: Serine/threonine-protein kinase PLK3 (Homo sapiens, UniProt Q9H4B4); assay: biochemical
Serine/threonine-protein kinase PLK3, sequence (Q9H4B4 whole entry): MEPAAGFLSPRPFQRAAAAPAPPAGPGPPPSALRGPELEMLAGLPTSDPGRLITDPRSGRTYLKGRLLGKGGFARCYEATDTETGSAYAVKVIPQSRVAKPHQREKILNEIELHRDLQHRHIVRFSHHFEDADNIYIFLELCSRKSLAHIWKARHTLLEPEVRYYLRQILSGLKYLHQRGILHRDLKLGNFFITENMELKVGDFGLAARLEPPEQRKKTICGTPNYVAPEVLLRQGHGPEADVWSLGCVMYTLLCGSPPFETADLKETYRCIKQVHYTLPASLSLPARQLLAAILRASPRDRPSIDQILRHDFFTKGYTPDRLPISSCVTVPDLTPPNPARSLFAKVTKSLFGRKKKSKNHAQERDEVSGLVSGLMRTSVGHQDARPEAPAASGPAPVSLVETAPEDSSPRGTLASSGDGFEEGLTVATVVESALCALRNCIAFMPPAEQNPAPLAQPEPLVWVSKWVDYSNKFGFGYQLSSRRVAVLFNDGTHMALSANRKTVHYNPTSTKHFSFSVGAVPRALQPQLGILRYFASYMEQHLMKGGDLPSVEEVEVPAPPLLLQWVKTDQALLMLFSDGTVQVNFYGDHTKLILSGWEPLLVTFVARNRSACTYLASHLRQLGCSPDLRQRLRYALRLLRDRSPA
Description: Inhibition of full length human PLK3 expressed in baculovirus-infected Trichoplusia ni cells by scintillation proximity assay

[17] = target: Serine/threonine-protein kinase PLK1 (Homo sapiens, UniProt P53350); assay: biochemical
Serine/threonine-protein kinase PLK1, sequence (P53350 whole entry): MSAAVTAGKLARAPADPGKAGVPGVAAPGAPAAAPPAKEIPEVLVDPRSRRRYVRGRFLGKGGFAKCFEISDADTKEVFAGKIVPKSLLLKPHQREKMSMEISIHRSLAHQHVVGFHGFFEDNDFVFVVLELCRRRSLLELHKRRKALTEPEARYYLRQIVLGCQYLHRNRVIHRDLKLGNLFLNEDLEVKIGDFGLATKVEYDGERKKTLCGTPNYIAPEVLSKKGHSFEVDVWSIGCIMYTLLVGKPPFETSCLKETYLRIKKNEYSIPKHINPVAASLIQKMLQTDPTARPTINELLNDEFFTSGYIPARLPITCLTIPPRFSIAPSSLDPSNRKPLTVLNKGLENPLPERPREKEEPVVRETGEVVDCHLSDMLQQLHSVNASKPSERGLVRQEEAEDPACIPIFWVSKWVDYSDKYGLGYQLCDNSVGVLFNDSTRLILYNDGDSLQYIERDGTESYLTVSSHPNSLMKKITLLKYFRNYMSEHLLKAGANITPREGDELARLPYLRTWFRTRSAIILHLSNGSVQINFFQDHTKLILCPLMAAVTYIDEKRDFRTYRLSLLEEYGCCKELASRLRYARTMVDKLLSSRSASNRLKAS
Description: Inhibition of human PLK1 kinase domain expressed in baculovirus-infected Trichoplusia ni cells by scintillation proximity assay

Structure (SMILES) | solubility at 0.25 h, 200 µM [9] [µM] | fraction unbound at 6 h, 2000 ng/mL [10] | IC50 [15] [nM] | IC50 [16] [nM] | IC50 [17] [nM] | further results
CC(Oc1cc(-n2cnc3ccc(OC4CCN(C)CC4)cc32)sc1C(N)=O)c1ccccc1C(F)(F)F (single isomer, unassigned) | 179 (≈ 97.5 µg/mL) | 0.052 | 12 | 270 |  | IC50 [1]: 10 nM; IC50 [2]: 32 nM; IC50 [3]: 110 nM; IC50 [4]: 340 nM; IC50 [5]: 390 nM; IC50 [6]: 530 nM; IC50 [7]: 800 nM; IC50 [8]: 840 nM; IC50 [11]: 5 nM; IC50 [12]: 3 nM; IC50 [13]: 14 nM; IC50 [14]: 25 nM
CC(Oc1cc(-n2cnc3ccc(OCCCN(C)C)cc32)sc1C(N)=O)c1ccccc1Cl (single isomer, unassigned) | 161 (≈ 80.3 µg/mL) | 0.026 | 32 |  |  | 
C[C@@H](Oc1cc(-n2cnc3ccc(OC[C@H](O)CN4CCCC4)cc32)sc1C(N)=O)c1ccccc1Cl (single isomer, unassigned) | 170 (≈ 92 µg/mL) | 0.038 | 45 |  |  | 
CC(Oc1cc(-n2cnc3ccc(OC4CCNCC4)cc32)sc1C(N)=O)c1ccccc1C(F)(F)F (single isomer, unassigned) | 104 (≈ 55.2 µg/mL) | 0.034 | 15 |  |  | 
CC(Oc1cc(-n2cnc3ccc(O[C@H]4CCCN(C)CC4)cc32)sc1C(N)=O)c1ccccc1Cl (single isomer, unassigned) | ≥ 200 | 0.031 | 17 |  |  | 
CC(Oc1cc(-n2cnc3ccc(O[C@@H]4CCCN(C)CC4)cc32)sc1C(N)=O)c1ccccc1Cl (single isomer, unassigned) | 200 (≈ 105 µg/mL) | 0.02 | 13 |  |  | 
CC(Oc1cc(-n2cnc3ccc(OCC4CCN(C)CC4)cc32)sc1C(N)=O)c1ccccc1C(F)(F)F (single isomer, unassigned) [GSK-326090A] | 109 (≈ 60.9 µg/mL) | 0.023 | 30 | 550 | 7 | 
CC(Oc1cc(-n2cnc3ccc(OCC4CCN(C)CC4)cc32)sc1C(N)=O)c1ccccc1Cl (single isomer, unassigned) [GSK-571989A] | ≥ 172 | 0.021 | 34 | 1100 | 6 | 
CC(Oc1cc(-n2cnc3ccc(OC4CCN(C)CC4)cc32)sc1C(N)=O)c1ccccc1Cl (single isomer, unassigned) [GSK-579289A] | ≥ 190 | 0.085 | 11 | 630 |  | IC50 [1]: 9 nM; IC50 [2]: 11 nM; IC50 [3]: 420 nM; IC50 [4]: 310 nM; IC50 [6]: 440 nM; IC50 [7]: 1200 nM; IC50 [8]: 2000 nM; IC50 [11]: 5 nM; IC50 [12]: 3 nM; IC50 [13]: 11 nM; IC50 [14]: 21 nM
CC(Oc1cc(-n2cnc3ccc(OC[C@@H](O)CO)cc32)sc1C(N)=O)c1ccccc1Cl (single isomer, unassigned) [GSK-978744A] | 15 (≈ 7.32 µg/mL) |  | 73 | 61 | 1 | 
COc1cc2ncn(-c3cc(O[C@@H](C)c4ccccc4Cl)c(C(N)=O)s3)c2cc1OC [GSK-237700A] |  |  | 994 | 44 |  | 
COc1cc2ncn(-c3cc(O[C@H](C)c4ccccc4Cl)c(C(N)=O)s3)c2cc1OC [GSK-237701A] | 2 (≈ 0.916 µg/mL) |  | 25 | 6 |  | 
COc1ccc2ncn(-c3cc(O[C@H](C)c4ccccc4Cl)c(C(N)=O)s3)c2c1 [GSK-317314A] | 3 (≈ 1.28 µg/mL) | 0.005 | 321 | 35 | 1 | 
COc1ccc2ncn(-c3cc(O[C@H](C)c4ccccc4C(F)(F)F)c(C(N)=O)s3)c2c1 [GSK-317315A] | 1 (≈ 0.461 µg/mL) | 0.005 | 476 | 41 | 3 | 
COc1cc2ncn(-c3cc(OCc4ccccc4Cl)c(C(N)=O)s3)c2cc1OC [GW852849X] |  |  | 1140 | 9 |  | 
